Values quoted from earlier work as cited in EP0775491A1, “IMMUNOPOTENTIATOR” (TAYCA CORPORATION, priority 1995, dated 1997).
Like-named read-outs stand apart in the source and are kept apart here.

Details: oral administration to rats

| SMILES | LD50 [mg/kg] | LD50 (female) [mg/kg] | LD50 (male) [mg/kg] |
| --- | --- | --- | --- |
| COC(COC(N)=O)C1=C(N2CC2)C(=O)C(C)=C(N2CC2)C1=O (stereo not shown) [Carboquone] | 27.3 | – | – |
| O=c1[nH]cc(F)c(=O)[nH]1 [Fluorouracil] | 781 | – | – |
| O=P1(N(CCCl)CCCl)NCCCO1 (stereo not shown) [Cyclophosphide] | – | 118 | 100 |
